Results taken from PubChem BioAssay AID248 (DTP/NCI, 2004).
Values joined by “and” are separate entries in the source; they are usually repeats but may differ in a detail not shown here. Equal values may be shown once. Inconclusive results and toxic doses are left out. Rule as the data show it: active = T/C of 150% or more; inactive = T/C below 125%.

System: L1210 leukemia ip in BDF1 mice, survival T/C
Assay: NCI In Vivo Anticancer Drug Screen. Data for tumor model L1210 Leukemia (intraperitoneal) in B6D2F1 (BDF1) mice
Details: endpoint: mean survival time, higher = longer survival
Summary of the method: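 Read-out is survival time, reported as the treated-group measurement over the vehicle-control measurement.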

[1] = dose: 100.0 mg/kg/injection, schedule: Q01DX001 (ip), vehicle: saline
[2] = dose: 200.0 mg/kg/injection, schedule: Q01DX001 (ip), vehicle: saline
[3] = dose: 400.0 mg/kg/injection, schedule: Q01DX001 (ip), vehicle: saline
[4] = dose: 100.0 mg/kg/injection, schedule: Q01DX001 (ip), vehicle: carboxymethylcellulose (CMC)
[5] = dose: 200.0 mg/kg/injection, schedule: Q01DX001 (ip), vehicle: carboxymethylcellulose (CMC)
[6] = dose: 400.0 mg/kg/injection, schedule: Q01DX001 (ip), vehicle: carboxymethylcellulose (CMC)
[7] = dose: 100.0 mg/kg/injection, schedule: Q01DX009 (ip), vehicle: saline with Tween-80
[8] = dose: 200.0 mg/kg/injection, schedule: Q01DX009 (ip), vehicle: saline with Tween-80
[9] = dose: 400.0 mg/kg/injection, schedule: Q01DX009 (ip), vehicle: saline with Tween-80
[10] = dose: 100.0 mg/kg/injection, schedule: Q04DX003 (ip), vehicle: saline with Tween-80
[11] = dose: 200.0 mg/kg/injection, schedule: Q04DX003 (ip), vehicle: saline with Tween-80
[12] = dose: 400.0 mg/kg/injection, schedule: Q04DX003 (ip), vehicle: saline with Tween-80
[13] = dose: 50.0 mg/kg/injection, schedule: Q01DX001 (ip), vehicle: carboxymethylcellulose (CMC)
[14] = dose: 100.0 mg/kg/injection, schedule: Q04DX003 (ip), vehicle: acetone
[15] = dose: 25.0 mg/kg/injection, schedule: Q01DX009 (ip), vehicle: Klucel (hydroxypropylcellulose) (HPC)
[16] = dose: 100.0 mg/kg/injection, schedule: Q04DX002 (ip), vehicle: Klucel (hydroxypropylcellulose) (HPC)
[17] = dose: 200.0 mg/kg/injection, schedule: Q04DX002 (ip), vehicle: Klucel (hydroxypropylcellulose) (HPC)
[18] = dose: 400.0 mg/kg/injection, schedule: Q04DX002 (ip), vehicle: Klucel (hydroxypropylcellulose) (HPC)
[19] = dose: 100.0 mg/kg/injection, schedule: Q04DX003 (ip), vehicle: Klucel (hydroxypropylcellulose) (HPC)
[20] = dose: 200.0 mg/kg/injection, schedule: Q04DX003 (ip), vehicle: Klucel (hydroxypropylcellulose) (HPC)
[21] = dose: 400.0 mg/kg/injection, schedule: Q04DX003 (ip), vehicle: Klucel (hydroxypropylcellulose) (HPC)
[22] = dose: 100.0 mg/kg/injection, schedule: Q04DX003 (ip), vehicle: saline
[23] = dose: 200.0 mg/kg/injection, schedule: Q04DX003 (ip), vehicle: saline
[24] = dose: 400.0 mg/kg/injection, schedule: Q04DX003 (ip), vehicle: saline

Measured: T/C

N#CSCC(=O)c1ccccc1
inactive: dose: 3.0 mg/kg/injection, schedule: Q01DX009 (ip), vehicle: Klucel (hydroxypropylcellulose) (HPC) 104 % of control | dose: 6.0 mg/kg/injection, schedule: Q01DX009 (ip), vehicle: Klucel (hydroxypropylcellulose) (HPC) 101 % of control | dose: 12.0 mg/kg/injection, schedule: Q01DX001 (ip), vehicle: saline 105 % of control | dose: 12.0 mg/kg/injection, schedule: Q01DX009 (ip), vehicle: Klucel (hydroxypropylcellulose) (HPC) 107 % of control | dose: 12.0 mg/kg/injection, schedule: Q04DX003 (ip), vehicle: saline 104 % of control | dose: 25.0 mg/kg/injection, schedule: Q01DX001 (ip), vehicle: saline 113 % of control | dose: 25.0 mg/kg/injection, schedule: Q04DX003 (ip), vehicle: saline 106 % of control | dose: 50.0 mg/kg/injection, schedule: Q01DX001 (ip), vehicle: saline 97 % of control | dose: 50.0 mg/kg/injection, schedule: Q04DX003 (ip), vehicle: saline 101 % of control

CCOP(=O)(Cc1c(Cl)c(Cl)c(CP(=O)(OCC)OCC)c(Cl)c1Cl)OCC
inactive: [1] 107 % of control | [2] 98 % of control | [3] 98 % of control

CCCCN(C)N=Nc1ccccc1C(=O)NN
inactive: [4] 96 % of control | [5] 107 % of control | [6] 113 % of control

CC1=C(C)C(=O)C(CC2=C(C)C(=O)C(C)=C(C)C2=O)=C(C)C1=O
inactive: dose: 100.0 mg/kg/injection, schedule: Q01DX005 (ip), vehicle: saline with Tween-80 101 % of control | [7] 96 % of control | dose: 200.0 mg/kg/injection, schedule: Q01DX005 (ip), vehicle: saline with Tween-80 96 % of control | [8] 100 % of control | dose: 400.0 mg/kg/injection, schedule: Q01DX005 (ip), vehicle: saline with Tween-80 104 % of control | [9] 96 % of control

CCC(C)C(CN)(CCCN1CCOCC1)c1cccc2ccccc12 (stereo unspecified)
inactive: [10] 93 % of control | [11] 95 % of control | [12] 95 % of control

COC(=O)CC(=O)/C(=C/C(C/C=C(\C(=O)CC(=O)OC)C(=O)OC)OC)C(=O)OC (stereo unspecified)
inactive: [13] 103 % of control | [4] 101 % of control | [5] 101 % of control | [6] 100 % of control

S=C(NNC(=S)Nc1ccc(Cl)cc1)NNc1ccccc1
inactive: [14] 97 % of control | dose: 200.0 mg/kg/injection, schedule: Q04DX003 (ip), vehicle: acetone 100 % of control

C#CCOCCC(=O)O
inactive: [14] 106 % of control

FC(F)(F)c1ccc2c(c1)N(CCCN1CCN(CCOc3ccccc3)CC1)c1ccccc1S2
inactive: dose: 6.25 mg/kg/injection, schedule: Q04DX003 (ip), vehicle: saline 105 % of control | dose: 8.2 mg/kg/injection, schedule: Q04DX003 (ip), vehicle: saline 97 % of control and 98 % of control | dose: 12.5 mg/kg/injection, schedule: Q04DX003 (ip), vehicle: saline 104 % of control | dose: 18.0 mg/kg/injection, schedule: Q04DX003 (ip), vehicle: saline 101 % of control and 102 % of control

CC(C)(C)NC(=O)Nc1ccc(Cl)c(Cl)c1
inactive: [1] 97 % of control | [2] 100 % of control | [3] 95 % of control

OC(c1ccc(Br)cc1)(c1cccs1)C1CC1 (stereo unspecified)
inactive: [7] 98 % of control | [10] 103 % of control | [8] 98 % of control | [11] 100 % of control | [9] 98 % of control | [12] 97 % of control

Cc1cc(C)c(NC(=O)Nc2ccccc2F)cc1C
inactive: [15] 98 % of control | dose: 50.0 mg/kg/injection, schedule: Q01DX009 (ip), vehicle: Klucel (hydroxypropylcellulose) (HPC) 93 % of control | dose: 100.0 mg/kg/injection, schedule: Q01DX009 (ip), vehicle: Klucel (hydroxypropylcellulose) (HPC) 96 % of control | [16] 102 % of control | dose: 200.0 mg/kg/injection, schedule: Q01DX009 (ip), vehicle: Klucel (hydroxypropylcellulose) (HPC) 89 % of control | [17] 91 % of control | [18] 115 % of control

COC(=O)c1c(C(=O)OC)c2c(-c3ccccc3)cc3cccc1n32
inactive: [19] 94 % of control | [20] 102 % of control | [21] 94 % of control

O=[N+]([O-])c1ccccc1C1ON1C1CCCCC1 (stereo unspecified)
inactive: [1] 97 % of control | [2] 97 % of control | [3] 90 % of control

O=[N+]([O-])c1ccc(N=Nc2ccc(O)cc2)c([N+](=O)[O-])c1
inactive: [13] 100 % of control | [4] 106 % of control | [5] 105 % of control

CSc1ccc(NC(=O)NCCc2ccccc2)cc1
inactive: [7] 94 % of control | [19] 96 % of control | [8] 102 % of control | [20] 96 % of control | [9] 107 % of control | [21] 104 % of control

CCCn1ncc(=O)[nH]c1=O
inactive: dose: 50.0 mg/kg/injection, schedule: Q01DX009 (ip), vehicle: saline with Tween-80 96 % of control | [7] 112 % of control | [8] 103 % of control

CCCN
inactive: [1] 107 % of control | dose: 100.0 mg/kg/injection, schedule: Q01DX009 (ip), vehicle: saline 106 % of control and 107 % of control | dose: 100.0 mg/kg/injection, schedule: Q04DX002 (ip), vehicle: saline 103 % of control and 108 % of control | [22] 103 % of control | [2] 100 % of control | dose: 200.0 mg/kg/injection, schedule: Q01DX009 (ip), vehicle: saline 93 % of control and 109 % of control | dose: 200.0 mg/kg/injection, schedule: Q04DX002 (ip), vehicle: saline 99 % of control and 106 % of control | [23] 96 % of control | [3] 105 % of control | dose: 400.0 mg/kg/injection, schedule: Q01DX009 (ip), vehicle: saline 111 % of control and 117 % of control | dose: 400.0 mg/kg/injection, schedule: Q04DX002 (ip), vehicle: saline 105 % of control and 108 % of control | [24] 96 % of control

O=C(OCc1ccccc1)c1ccccc1
inactive: [7] 98 % of control | [8] 105 % of control | [9] 93 % of control

CCOC(=O)CNC(=O)CO
inactive: dose: 100.0 mg/kg/injection, schedule: Q01DX001 (ip), vehicle: other 101 % of control | dose: 200.0 mg/kg/injection, schedule: Q01DX001 (ip), vehicle: other 95 % of control | dose: 400.0 mg/kg/injection, schedule: Q01DX001 (ip), vehicle: other 101 % of control

CN=C(N)Nc1ccc(C(=O)O)cc1
inactive: dose: 100.0 mg/kg/injection, schedule: Q01DX009 (ip), vehicle: water 102 % of control | dose: 100.0 mg/kg/injection, schedule: Q04DX003 (ip), vehicle: water 106 % of control | dose: 200.0 mg/kg/injection, schedule: Q01DX009 (ip), vehicle: water 107 % of control | dose: 200.0 mg/kg/injection, schedule: Q04DX003 (ip), vehicle: water 89 % of control | dose: 400.0 mg/kg/injection, schedule: Q01DX009 (ip), vehicle: water 106 % of control | dose: 400.0 mg/kg/injection, schedule: Q04DX003 (ip), vehicle: water 91 % of control

CN(C)C(=S)c1ccc(Cl)cc1
inactive: dose: 12.5 mg/kg/injection, schedule: Q01DX009 (ip), vehicle: Klucel (hydroxypropylcellulose) (HPC) 98 % of control | [15] 98 % of control

Cn1c(=O)oc2ccccc2c1=O
inactive: [22] 98 % of control | [23] 97 % of control | [24] 109 % of control

Cc1ccc(S/C=C/Sc2ccc(C)cc2)cc1
inactive: [16] 99 % of control | [17] 99 % of control | [18] 99 % of control

COP(=O)(OC)C(OC(=O)C(C)C)=C(C)C
inactive: [10] 112 % of control | [11] 110 % of control | [12] 102 % of control

CSc1nc(NN)cc(-c2ccccc2)n1
inactive: dose: 100.0 mg/kg/injection, schedule: Q01DX Z (ip), vehicle: methylcellulose (MC) 98 % of control | dose: 200.0 mg/kg/injection, schedule: Q01DX Z (ip), vehicle: methylcellulose (MC) 90 % of control
